# Molecular target: Serine/threonine-protein kinase SIK2 (Homo sapiens, UniProt Q9H0K1)
# Assay: In Vitro SIK2 Kinase Assay
# Method: Assays were performed in base reaction buffer (20 mM Hepes (pH 7.5), 10 mM MgCl2, 1 mM EGTA, 0.02% Brij35, 0.02 mg/mL BSA, 0.1 mM Na3VO4, 2 mM DTT, 1% DMSO). Compounds were dissolved in 100% DMSO in a 10 mM stock. Serial dilution was conducted by Integra Viaflo Assist in DMSO. […] The substrate used was pAMARA at a concentration of 0.2 mg/mL. Kinase assays were supplemented with 2 mM Mn2+, and 1 μM ATP was added. Assays were performed for 20 minutes at room temperature, after which time 33P-ATP (10 μCi/μL) was added followed by incubation for another 120 minutes at room temperature. Thereafter, radioactivity incorporated into the […] peptide substrate was detected by filter-binding method. Kinase activity data were expressed as the percent remaining kinase activity in test samples compared to DMSO reactions. IC50 values and curve fits were obtained using Prism (GraphPad Software).
# Sequence of Serine/threonine-protein kinase SIK2 (Q9H0K1 whole entry): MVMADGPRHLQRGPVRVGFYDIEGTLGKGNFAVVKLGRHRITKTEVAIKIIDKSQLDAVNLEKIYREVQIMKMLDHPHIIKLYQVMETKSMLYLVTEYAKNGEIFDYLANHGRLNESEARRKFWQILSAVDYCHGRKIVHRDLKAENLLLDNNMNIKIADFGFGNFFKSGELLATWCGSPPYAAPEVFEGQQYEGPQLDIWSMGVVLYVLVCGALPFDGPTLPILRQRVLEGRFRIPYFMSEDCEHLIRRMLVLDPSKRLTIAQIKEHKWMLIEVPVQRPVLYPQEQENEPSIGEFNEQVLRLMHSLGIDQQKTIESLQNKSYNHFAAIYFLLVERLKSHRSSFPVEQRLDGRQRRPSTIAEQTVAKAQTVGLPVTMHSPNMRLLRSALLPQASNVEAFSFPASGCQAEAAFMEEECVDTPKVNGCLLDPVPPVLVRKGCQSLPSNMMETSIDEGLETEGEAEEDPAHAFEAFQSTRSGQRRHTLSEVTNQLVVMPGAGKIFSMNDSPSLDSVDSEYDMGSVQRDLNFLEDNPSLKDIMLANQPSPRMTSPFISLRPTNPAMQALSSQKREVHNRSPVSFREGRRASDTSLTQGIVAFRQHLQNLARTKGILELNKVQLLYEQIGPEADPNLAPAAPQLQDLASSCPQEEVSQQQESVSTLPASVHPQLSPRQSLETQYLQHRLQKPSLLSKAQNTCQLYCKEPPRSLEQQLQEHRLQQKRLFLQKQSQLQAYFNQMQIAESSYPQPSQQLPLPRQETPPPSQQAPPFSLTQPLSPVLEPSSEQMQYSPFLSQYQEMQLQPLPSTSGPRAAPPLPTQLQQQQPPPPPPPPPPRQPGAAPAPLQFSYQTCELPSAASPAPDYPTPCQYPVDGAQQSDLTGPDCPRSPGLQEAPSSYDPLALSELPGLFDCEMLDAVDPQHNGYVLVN
structure (smiles),measurement,value
"N#Cc1ccc(-n2cnc3cc(C(=O)NCc4cccnc4)ccc32)cc1 [US20240025892, Example 32]",IC50,148 nM

# From BindingDB's records for patent US20240025892 (The General Hospital, 2024)
